Experimental data as given in patent US8999982B2, “Pharmaceutically active compounds as Axl inhibitors” (Lead Discovery Center GmbH, priority 2010, dated 2015).

What was measured:
[1] = target: T1, Axl (Homo sapiens (Human), UniProt P30530); assay: Axl binding assay
Protocol: Binding of the tracer to the kinase is detected using an EU-labeled anti-tag antibody. […] Binding of an inhibitor to the kinase competes for binding with the tracer, resulting in a loss of FRET-signal. At first a compound according to formula (I) was diluted in 20 mM Hepes pH 8.0, 1 mM DTT, 10 mM MgCl2 and 0.01% Brij35.

[2] = target: T1, Axl; assay: Cellular Axl phosphorylation assay; type: cell-based; conditions: HEK293 cells transfected with Axl cDNA, 1 hour incubation
Protocol: 3. Cellular Axl Phosphorylation Assay:
HEK293 embryonal kidney fibroblasts were transfected in 96 wells with a plasmid containing Axl cDNA. As transfection reagent Superfect (Qiagen) was used. Transfection of the sole vector backbone served as negative control of Axl expression. After overnight incubation the cellular supernatant was replaced with fresh medium. On the following day the Axl-expressing cells were incubated for 1 hour with a compound according to formula (I) at the suitable concentrations. […] The mesoscale technology was used for quantification.

T1 sequence (P30530 26-894): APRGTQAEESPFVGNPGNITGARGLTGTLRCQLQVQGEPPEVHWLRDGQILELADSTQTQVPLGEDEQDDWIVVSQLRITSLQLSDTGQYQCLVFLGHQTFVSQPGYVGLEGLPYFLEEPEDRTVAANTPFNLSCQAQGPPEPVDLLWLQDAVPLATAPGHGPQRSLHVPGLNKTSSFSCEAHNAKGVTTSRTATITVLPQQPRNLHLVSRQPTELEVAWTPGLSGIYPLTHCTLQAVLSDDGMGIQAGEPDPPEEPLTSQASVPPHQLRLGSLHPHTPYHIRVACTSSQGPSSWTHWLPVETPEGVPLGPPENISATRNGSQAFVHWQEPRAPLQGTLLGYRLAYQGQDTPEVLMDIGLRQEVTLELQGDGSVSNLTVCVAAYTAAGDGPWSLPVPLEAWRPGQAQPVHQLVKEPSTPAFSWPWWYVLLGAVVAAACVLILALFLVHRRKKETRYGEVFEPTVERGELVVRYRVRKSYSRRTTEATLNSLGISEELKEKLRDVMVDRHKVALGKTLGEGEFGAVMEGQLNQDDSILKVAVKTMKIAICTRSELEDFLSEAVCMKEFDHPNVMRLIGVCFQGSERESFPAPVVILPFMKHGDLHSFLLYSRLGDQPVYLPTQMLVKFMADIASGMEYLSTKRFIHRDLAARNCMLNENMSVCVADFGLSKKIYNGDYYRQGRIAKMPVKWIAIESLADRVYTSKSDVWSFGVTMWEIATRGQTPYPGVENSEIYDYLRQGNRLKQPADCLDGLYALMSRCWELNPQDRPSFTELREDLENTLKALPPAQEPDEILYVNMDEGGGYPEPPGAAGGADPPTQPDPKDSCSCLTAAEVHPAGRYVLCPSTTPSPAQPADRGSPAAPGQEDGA

Row | Compound | IC50 [1] [µM] | IC50 [2] [µM] | IC50 ([1]; listed as compound 64) [µM] | IC50 ([1]; listed as compound 71) [µM]
1 | COc1cc2nccc(Oc3ccc(N)cc3Cl)c2cc1OC [3-chloro-4-((6,7-dimethoxyquinolin-4-yl)oxy)aniline] | > 10 |  |  | 
2 | COc1cc(Oc2ccnc3cc(OC)c(OC)cc23)ccc1N [4-((6,7-dimethoxyquinolin-4-yl)oxy)-2-methoxyaniline] | > 10 |  |  | 
3 | COc1cc2nccc(Oc3ccc(N)c(C)c3)c2cc1OC [4-((6,7-dimethoxyquinolin-4-yl)oxy)-2-methylaniline] | > 10 |  |  | 
4 | COc1cc2nccc(Oc3ccc(N)cc3F)c2cc1OC [4-((6,7-dimethoxyquinolin-4-yl)oxy)-3-fluoroaniline] | > 10 |  |  | 
5 | COc1cc2nccc(Oc3ccc(N)cc3C)c2cc1OC [4-((6,7-dimethoxyquinolin-4-yl)oxy)-3-methylaniline] | > 10 |  |  | 
6 | COc1cc2nccc(Oc3ccc(N)cc3)c2cc1OC [4-((6,7-dimethoxyquinolin-4-yl)oxy)aniline] | > 10 |  |  | 
7 | COc1cc2nccc(Oc3ccc(N)nc3)c2cc1OC [5-((6,7-dimethoxyquinolin-4-yl)oxy)pyridin-2-amine] | > 10 |  |  | 
8 | COc1cc2nccc(Oc3ccc(NC(=O)c4cc(C)n(C)n4)cc3F)c2cc1OC [Example 1, N-[4-[(6,7-dimethoxy-4-quinolyl)oxy]-3-fluoro-phenyl]-1,5-dimethyl-pyrazole-3-carboxamide] | 0.5 to 5 | 0.5 to 5 |  | 
9 | COc1cc2nccc(Oc3ccc(NC(=O)c4csc(-c5ccc(C(F)(F)F)cc5)n4)cc3F)c2cc1OC [Example 2, N-[4-[(6,7-dimethoxy-4-quinolyl)oxy]-3-fluoro-phenyl]-2-[4-(trifluoromethyl)phenyl]thiazole-4-carboxamide] | 0.5 to 5 |  |  | 
10 | COc1cc2nccc(Oc3ccc(NC(=O)c4nn(C)cc4Br)cc3F)c2cc1OC [Example 3, 4-bromo-N-[4-[(6,7-dimethoxy-4-quinolyl)oxy]-3-fluoro-phenyl]-1-methyl-pyrazole-3-carboxamide] | 0.5 to 5 | 0.5 to 5 |  | 
11 | COc1cc2nccc(Oc3ccc(NC(=O)c4ccn(C)n4)cc3F)c2cc1OC [Example 4, N-[4-[(6,7-dimethoxy-4-quinolyl)oxy]-3-fluoro-phenyl]-1-methyl-pyrazole-3-carboxamide] | 0.5 to 5 | 0.5 to 5 |  | 
12 | COc1cc2nccc(Oc3ccc(NC(=O)c4cc(C)n(C(C)(C)C)n4)cc3F)c2cc1OC [Example 5, 1-tert-butyl-N-[4-[(6,7-dimethoxy-4-quinolyl)oxy]-3-fluoro-phenyl]-5-methyl-pyrazole-3-carboxamide] | < 0.5 | < 0.5 |  | 
13 | COc1cc2nccc(Oc3ccc(NC(=O)c4nccs4)cc3F)c2cc1OC [Example 6, N-[4-[(6,7-dimethoxy-4-quinolyl)oxy]-3-fluoro-phenyl]thiazole-2-carboxamide] | 0.5 to 5 |  |  | 
14 | COc1cc2nccc(Oc3ccc(NC(=O)c4nn(C)c5ccccc45)cc3F)c2cc1OC [Example 8, N-[4-[(6,7-dimethoxy-4-quinolyl)oxy]-3-fluoro-phenyl]-1-methyl-indazole-3-carboxamide] | 0.5 to 5 |  |  | 
15 | COc1cc2nccc(Oc3ccc(NC(=O)c4cc(C)on4)cc3F)c2cc1OC [Example 9, N-[4-[(6,7-dimethoxy-4-quinolyl)oxy]-3-fluoro-phenyl]-5-methyl-isoxazole-3-carboxamide] | 0.5 to 5 |  |  | 
16 | COc1cc2nccc(Oc3ccc(NC(=O)c4csc(-c5ccccc5)n4)cc3F)c2cc1OC [Example 10, N-[4-[(6,7-dimethoxy-4-quinolyl)oxy]-3-fluoro-phenyl]-2-phenyl-thiazole-4-carboxamide] | 0.5 to 5 | 0.5 to 5 |  | 
17 | CCCn1ccc(C(=O)Nc2ccc(Oc3ccnc4cc(OC)c(OC)cc34)c(F)c2)n1 [Example 13, N-[4-[(6,7-dimethoxy-4-quinolyl)oxy]-3-fluoro-phenyl]-1-propyl-pyrazole-3-carboxamide] | 0.5 to 5 | < 0.5 |  | 
18 | COc1cc2nccc(Oc3ccc(NC(=O)c4ccn(COCC(F)(F)F)n4)cc3F)c2cc1OC [Example 15, N-[4-[(6,7-dimethoxy-4-quinolyl)oxy]-3-fluoro-phenyl]-1-(2,2,2-trifluoroethoxymethyl)pyrazole-3-carboxamide] | 0.5 to 5 | < 0.5 |  | 
19 | CCOc1cn(-c2ccc(F)cc2)nc1C(=O)Nc1ccc(Oc2ccnc3cc(OC)c(OC)cc23)c(F)c1 [Example 16, N-[4-[(6,7-dimethoxy-4-quinolyl)oxy]-3-fluoro-phenyl]-4-ethoxy-1-(4-fluorophenyl)pyrazole-3-carboxamide] | < 0.5 | < 0.5 |  | 
20 | COc1cc2nccc(Oc3ccc(NC(=O)c4nn(-c5ccc(F)cc5)cc4OC)cc3F)c2cc1OC [Example 17, N-[4-[(6,7-dimethoxy-4-quinolyl)oxy]-3-fluoro-phenyl]-1-(4-fluorophenyl)-4-methoxy-pyrazole-3-carboxamide] | < 0.5 | < 0.5 |  | 
21 | COc1cc2nccc(Oc3ccc(NC(=O)c4nn(-c5ccc(F)cc5)cc4OCC4CC4)cc3F)c2cc1OC [Example 18, 4-(cyclopropylmethoxy)-N-[4-[(6,7-dimethoxy-4-quinolyl)oxy]-3-fluoro-phenyl]-1-(4-fluorophenyl)pyrazole-3-carboxamide] | < 0.5 | < 0.5 |  | 
22 | COc1cc2c(Oc3ccc(NC(=O)c4nc(-c5ccccc5OC)cs4)nc3)ccnc2cc1OCC1CCNCC1 [Example 100, N-(5-((6-methoxy-7-(piperidin-4-ylmethoxy)quinolin-4-yl)oxy)pyridin-2-yl)-4-(2-methoxyphenyl)thiazole-2-carboxamide] | 0.5 to 5 |  |  | 
23 | CCOc1cn(-c2ccn(C)n2)nc1C(=O)Nc1ccc(Oc2ccnc3cc(OC)c(OC)cc23)c(F)c1 [Example 106, N-(4-((6,7-dimethoxyquinolin-4-yl)oxy)-3-fluorophenyl)-4-ethoxy-1′-methyl-1′H-[1,3′-bipyrazole]-3-carboxamide] | < 0.5 |  |  | 
24 | COc1cc2nccc(Oc3ccc(NC(=O)c4cnn(-c5ccccc5)c4C(F)(F)F)cc3F)c2cc1OC [Ref1, N-(4-((6,7-dimethoxyquinolin-4-yl)oxy)-3-fluorophenyl)-1-phenyl-5-(trifluoromethyl)-1H-pyrazole-4-carboxamide, reference compound] | > 10 |  |  | 
25 | COc1cc2nccc(Oc3ccc(NC(=O)c4cc(-c5ccccc5)on4)cc3F)c2cc1OC [Ref2, N-(4-((6,7-dimethoxyquinolin-4-yl)oxy)-3-fluorophenyl)-5-phenylisoxazole-3-carboxamide, reference compound] | > 10 |  |  | 
26 | COc1cc2nccc(Oc3ccc(NC(=O)c4ccco4)cc3)c2cc1OC [Ref3, N-(4-((6,7-dimethoxyquinolin-4-yl)oxy)phenyl)furan-2-carboxamide, reference compound] | > 10 |  | ≥ 10 | 
27 | COc1cc2nccc(Oc3ccc(NC(=O)c4ccncc4)cc3)c2cc1OC [Ref5, N-(4-((6,7-dimethoxyquinolin-4-yl)oxy)phenyl)isonicotinamide, reference compound] | > 10 |  |  | ≥ 10
28 | COc1cc2c(Oc3ccc(N)cc3F)ccnc2cc1OCC1CCN(C(=O)OC(C)(C)C)CC1 [tert-butyl 4-(((4-(4-amino-2-fluorophenoxy)-6-methoxyquinolin-7-yl)oxy)methyl)piperidine-1-carboxylate] | > 10 |  |  | 
